Laboratory results: the NIST ThermoML archive (doi:10.1016/j.fluid.2005.06.017)
± gives the expanded uncertainty stated by the source.

Conditions: Liquid, Ebulliometric method (Recirculating still)

Row | Structure (SMILES) | vapor or sublimation pressure (353.15 K) | vapor or sublimation pressure (333.15 K) | vapor or sublimation pressure (373.15 K)
1 | CCC(C)(C)OC [2-methoxy-2-methylbutane] | 86.7 ± 3.1 kPa |  | 
2 | COC(C)(C)C [2-methoxy-2-methylpropane] |  | 120.4 ± 3.2 kPa | 
3 | CN1CCCC1=O [N-methylpyrrolidone] | 1.3 kPa | 0.5 kPa | 3.6 ± 3 kPa
4 | CCCOCCC [dipropyl ether] | 74.1 ± 3.1 kPa |  | 135.5 ± 3.1 kPa
